The results in this text go back to paper PMC10069031 (European Journal of Medical Research, 2023).

Holding throughout (format): in vivo, mouse
The subject of assay [1] is CCL2. Kind of assay: CCL2 ELISA in plasma, CT26 study. The note with it: steady-state analysis. As to the method: CT26 tumor cells were cultivated in RPMI 1640 with 2 mM L-glutamine (Gibco, Invitrogen GmbH) containing 10% fetal bovine serum (Gibco) at 37 °C and 5% CO2. Cell lines were maintained in culture for no longer than 6 months, and mycoplasma contamination was excluded by enzymatic test (MycoAlert, Lonza) prior to in vivo application. Tumor cells (2 × 10^6) were transplanted subcutaneously into 6- to 8-week-old female BALB/c mice. Control mice were subjected to sham surgery without tumor cell transplantation. Blood and tumor samples were collected from untreated control and tumor-bearing mice on days 4 and 8 (n = 3 mice/group). […] Tumor diameter was measured by caliper and body weight was determined at least twice weekly. Tumor volume was calculated using the formula 0.5 × a × b^2, where a and b are the long and short diameters of the tumor, respectively.
For tissue collection, mice were killed at predetermined time points. […] Tumors were removed, and their weights determined, then divided into three pieces, one of which was snap-frozen, one formalin fixed and paraffin embedded, and one weighed and used for FC analyses.
CCL2 was detected in plasma samples and tumor tissue using the U-Plex mouse MCP-1 ELISA Kit (Meso Scale Diagnostics) according to the manufacturer’s instructions. […] For plasma, 12.5 µL was analyzed per animal. […]

Assay [2] concerns CD115^hi cells in blood. As to the kind of experiment: CD115^hi cells in blood, MC38 study. As to conditions: C57BL/6 mice with subcutaneous MC38 CRC tumors. The protocol: (§1) For tumors, single-cell suspensions were prepared from the fresh tumor pieces using a mouse Tumor Dissociation Kit (Miltenyi Biotec). The final cell pellets were resuspended in 1 mL FC buffer (PBS with 2 mM EDTA, 0.5% bovine serum albumin). Then, 100 µL of the tumor single-cell suspensions and the EDTA blood samples were stained by addition of the antibody cocktail and incubated for 10 min at 4 °C according to the manufacturer’s instructions. After antibody incubation, blood samples were incubated with 2–3 mL lysis buffer (0.17 M NH4Cl, 10 mM KHCO3, 0.1 mM EDTA) for 10–20 min at RT to lyse and remove red blood cells. Subsequently, samples were centrifuged at 300 g for 5 min at 4 °C and cells were washed with 2–3 mL FC buffer. Tumor samples were washed immediately after antibody incubation with 2–3 mL FC buffer without the lysis procedure and centrifuged at 300 g for 5 min at 4 °C. […] Next, 50 µL of blood and 70 µL of tumor cell suspensions were analyzed by FC using MACSQuant Analyzer 10 and MACSQuant Analyzer 16 (Miltenyi Biotec). FC data were analyzed with the FlowLogic software (Inivai Technologies distributed through Miltenyi Biotec; version 7.2.1) and gated as shown in Fig. S1 (see Additional file 2), whereby up to seven subpopulations were identified in the CD45^+ fraction using antibodies against F4/80 and CD115. […]

For assay [3], the system named is F4/80^hi population. Kind of assay: F4/80^hi cells in MC38 tumors. As to conditions: even at 5 mg/kg/day. The protocol:
as §1

Assay [4] concerns CCL2. Kind of assay: CCL2 in MC38 tumors. The note with it: REG 5 and 10 mg/kg/day. The protocol:
For tumors, snap-frozen tissue was subjected to cryogenic grinding using a Mixer Mill MM 400 and stainless steel beads (7 mm in diameter; Retsch) and subsequently lysed in Tris Lysis Buffer (Meso Scale Diagnostics). The lysates were centrifuged at 25,000 g at 4 °C for 10 min, protein concentrations were determined using the 660 nm protein assay kit (Pierce), and 2–20 μg of lysate was used for CCL2 analysis. CCL2 concentrations were related to the amounts of tumor tissue taken for the lysis procedure.
Five analysis of variance (ANOVA) models were applied to analyze the log10-transformed values of the tumor weight in the CT26 study, the CCL2 levels in the tumor in the CT26 and MC38 studies, and the CCL2 levels in the PB in the CT26 and MC38 studies. The standard assumption of equal variances between treatment groups was applied for all endpoints, except for CCL2 levels in the tumor in the MC38 study, for which unequal variances between treatment groups were allowed. A negative binomial regression model was applied to evaluate percentages of CD115^hi and F4/80^hi cells within the CD45^+ cell population in PB and tumor tissue, respectively.
In vivo passaging was initiated by transplanting fragments of cryo-preserved MC38 tumors of early passages (<p5) subcutaneously into 6–8-week-old female C57BL/6 mice. […]

For `CNC(=O)c1cc(Oc2ccc(NC(=O)Nc3ccc(Cl)c(C(F)(F)F)c3)c(F)c2)ccn1` [REG, Regorafenib], in assay [1], the “CCL2 levels in plasma vs vehicle or untreated samples” value is recorded as “did not change”. In assay [2], the “number of CD115^hi cells in the blood” value is “reduced”. The “reduction of the F4/80^hi population vs vehicle” value in assay [3] is reported as “more than twofold”. Moreover, in assay [4], the “CCL2 concentrations in MC38 tumors” value is given as “dose dependently increased”.
